Test results reported in ChEMBL document CHEMBL3352474, “Design, synthesis and biological evaluation of FLT3 covalent inhibitors with a resorcylic acid core” (Bioorg Med Chem, 2014).

Columns and labels:
[1] = target: T1, Receptor-type tyrosine-protein kinase FLT3 (Homo sapiens, UniProt P36888); test: Inhibition of recombinant FLT3 (unknown origin) by TR-FRET assay
T1 sequence (P36888 whole entry): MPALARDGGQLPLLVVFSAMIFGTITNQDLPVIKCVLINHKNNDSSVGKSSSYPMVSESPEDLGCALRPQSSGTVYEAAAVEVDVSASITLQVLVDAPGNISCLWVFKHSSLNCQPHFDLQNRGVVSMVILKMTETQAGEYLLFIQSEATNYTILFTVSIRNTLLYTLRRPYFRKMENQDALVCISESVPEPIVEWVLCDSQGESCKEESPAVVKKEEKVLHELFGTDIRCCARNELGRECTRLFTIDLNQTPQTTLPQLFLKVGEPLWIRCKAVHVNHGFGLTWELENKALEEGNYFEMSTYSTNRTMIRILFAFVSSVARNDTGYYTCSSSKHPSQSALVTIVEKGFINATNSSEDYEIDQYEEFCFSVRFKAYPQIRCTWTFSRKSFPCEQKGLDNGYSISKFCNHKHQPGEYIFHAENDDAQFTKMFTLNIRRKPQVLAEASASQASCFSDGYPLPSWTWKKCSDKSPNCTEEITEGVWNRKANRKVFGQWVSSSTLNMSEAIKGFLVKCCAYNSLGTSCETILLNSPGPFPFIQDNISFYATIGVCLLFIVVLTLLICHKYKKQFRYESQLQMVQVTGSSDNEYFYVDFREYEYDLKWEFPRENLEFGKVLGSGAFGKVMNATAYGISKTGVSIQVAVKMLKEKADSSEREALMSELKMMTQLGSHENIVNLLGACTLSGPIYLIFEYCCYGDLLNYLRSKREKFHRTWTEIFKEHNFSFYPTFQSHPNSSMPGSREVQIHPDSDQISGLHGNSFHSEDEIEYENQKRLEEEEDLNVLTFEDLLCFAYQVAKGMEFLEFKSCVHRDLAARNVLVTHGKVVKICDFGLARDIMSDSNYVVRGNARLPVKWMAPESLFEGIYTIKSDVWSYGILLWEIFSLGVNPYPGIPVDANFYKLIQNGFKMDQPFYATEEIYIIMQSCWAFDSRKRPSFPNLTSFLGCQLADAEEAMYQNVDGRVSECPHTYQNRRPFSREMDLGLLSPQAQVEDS

[2] = Antiproliferative activity against human THP1 cells assessed as growth inhibition at 5 uM after 72 hrs by luminescent cell viability assay; type: functional; settings: THP-1, 72 h, read-out: GI
[3] = Antiproliferative activity against human HEK293T cells assessed as growth inhibition at 5 uM after 72 hrs by luminescent cell viability assay; type: cell-based, HEK-293T; settings: read-out: GI
[4] = target: MAP kinase-interacting serine/threonine-protein kinase 2 (Homo sapiens) (UniProt Q9HBH9); test: Inhibition of MNK2 (unknown origin) at 10 uM
[5] = Antiproliferative activity against human HL60 cells assessed as growth inhibition at 5 uM after 72 hrs by luminescent cell viability assay; type: functional; settings: HL-60, 72 h, read-out: GI
[6] = target: MAP kinase-interacting serine/threonine-protein kinase 1 (Homo sapiens) (UniProt Q9BUB5); test: Inhibition of MNK1 (unknown origin) at 10 uM
MV4-11 [7] = test: Antiproliferative activity against human MV4-11 cells after 72 hrs by luminescent cell viability assay; type: functional, cell-based; settings: MV4-11, 72 h
K562 = test: Antiproliferative activity against human K562 cells assessed as growth inhibition at 5 uM after 72 hrs by luminescent cell viability assay; type: functional; settings: K562, 72 h, read-out: GI
[8] = Antiproliferative activity against human THP1 cells after 72 hrs by luminescent cell viability assay; type: functional, cell-based; settings: THP-1, 72 h
MV4-11 [9] = test: Antiproliferative activity against human MV4-11 cells assessed as growth inhibition at 5 uM after 72 hrs by luminescent cell viability assay; type: functional; settings: MV4-11, 72 h, read-out: GI
[10] = target: Receptor-type tyrosine-protein kinase FLT3 (Homo sapiens, UniProt P36888, ITD); test: Inhibition of recombinant FLT3 ITD mutant (unknown origin) by RBC kinase assay
[11] = target: Receptor-type tyrosine-protein kinase FLT3 (Homo sapiens, UniProt P36888, D835Y); test: Inhibition of recombinant FLT3 D835Y mutant (unknown origin) by TR-FRET assay

Chain of MAP kinase-interacting serine/threonine-protein kinase 2 (Homo sapiens) (Q9HBH9 whole entry, looked up): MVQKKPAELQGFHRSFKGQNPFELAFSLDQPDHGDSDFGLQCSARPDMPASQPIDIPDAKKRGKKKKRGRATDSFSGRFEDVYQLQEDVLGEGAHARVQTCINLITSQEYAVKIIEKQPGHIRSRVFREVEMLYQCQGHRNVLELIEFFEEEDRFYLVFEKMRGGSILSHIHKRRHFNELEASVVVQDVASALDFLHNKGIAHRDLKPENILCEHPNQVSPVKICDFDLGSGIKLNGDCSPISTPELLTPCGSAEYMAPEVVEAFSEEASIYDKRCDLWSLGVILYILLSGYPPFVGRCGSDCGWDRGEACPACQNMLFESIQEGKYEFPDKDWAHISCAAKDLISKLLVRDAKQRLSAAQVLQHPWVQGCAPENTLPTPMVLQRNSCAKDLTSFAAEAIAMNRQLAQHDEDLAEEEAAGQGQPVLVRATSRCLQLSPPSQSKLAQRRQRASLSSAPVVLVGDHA
Chain of MAP kinase-interacting serine/threonine-protein kinase 1 (Homo sapiens) (Q9BUB5 whole entry, looked up): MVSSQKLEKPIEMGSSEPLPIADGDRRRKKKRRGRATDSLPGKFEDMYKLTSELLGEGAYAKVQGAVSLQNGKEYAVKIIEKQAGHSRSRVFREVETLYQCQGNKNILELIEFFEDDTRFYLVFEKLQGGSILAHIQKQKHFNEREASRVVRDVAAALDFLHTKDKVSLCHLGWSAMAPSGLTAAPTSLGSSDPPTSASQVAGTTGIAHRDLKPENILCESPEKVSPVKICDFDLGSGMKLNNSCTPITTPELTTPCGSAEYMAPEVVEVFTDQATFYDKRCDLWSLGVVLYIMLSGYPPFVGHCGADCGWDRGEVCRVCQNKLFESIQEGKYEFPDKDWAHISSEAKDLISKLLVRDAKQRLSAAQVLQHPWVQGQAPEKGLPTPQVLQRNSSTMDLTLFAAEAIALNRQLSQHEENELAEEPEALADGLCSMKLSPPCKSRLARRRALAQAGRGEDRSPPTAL

IC50 [1]	inhibition [4]	inhibition [6]	IC50 (MV4-11 [7])	IC50 [10]	IC50 [11]	SMILES	inhibition of growth at 5 µM [2]	inhibition at 72 h, 5 µM [3]	inhibition of growth at 5 µM [5]	inhibition of growth at 5 µM (K562)	IC50 [8]	inhibition of growth at 5 µM (MV4-11 [9])
0.58 µM	1.8%	8.8%	3.51 µM	8.87 µM	0.81 µM	CC(C)OC(=O)c1c(O)cc(OCCN2CCOCC2)cc1CCCN1C(=O)C=CC1=O	81.5%	13.3%	98.9%	99.3%	5.43 µM	99.8%
≥ 30 µM			7.73 µM	≥ 30 µM	≥ 30 µM	C=CS(=O)(=O)NC/C=C/c1cc(OC)cc(O)c1C(=O)OCC(C)c1ccccc1 (stereo not given)	5.6%	22.5%	9.5%	16.7%	> 10 µM	9.6%
> 30 µM			7.61 µM	4.23 µM	18.6 µM	C=CS(=O)(=O)NCCCc1cc(OCCN2CCOCC2)cc(O)c1C(=O)OC(C)C	0%	28.4%	2%	13.8%	> 10 µM	20.4%
≥ 30 µM			> 10 µM	≥ 30 µM	≥ 30 µM	CCN(CC)C/C=C/C(=O)NC/C=C/c1cc(OC)cc(O)c1C(=O)O[C@@H](C)C(C)C						
≥ 30 µM			6.06 µM	≥ 30 µM	≥ 30 µM	C=CS(=O)(=O)NC/C=C/c1cc(OC)cc(O)c1C(=O)OCc1ccc(Br)cc1	31.2%	0%	8.1%	38.4%	6.24 µM	61%
≥ 30 µM			> 10 µM	≥ 30 µM	≥ 30 µM	C/C=C/C(=O)NC/C=C/c1cc(OCCc2ccc(F)cc2)cc(O)c1C(=O)OC(C)C						
> 50 µM			> 10 µM		14.2 µM	COc1cc(O)c(C(=O)OC(C)C)c(/C=C/CNC(C)=O)c1						
≥ 30 µM			5.86 µM	≥ 30 µM	≥ 30 µM	C=CS(=O)(=O)NC/C=C/c1cc(OC)cc(O)c1C(=O)OCC1CCCCC1	26.5%	31.2%	7.5%	27.4%	7.88 µM	56.4%
16.2 µM	12.9%	5.8%	> 10 µM		10.5 µM	C/C=C/C(=O)NC/C=C/c1cc(OCCCN2CCOCC2)cc(O)c1C(=O)OC(C)C						
≥ 30 µM			5.14 µM	≥ 30 µM	≥ 30 µM	C=CS(=O)(=O)NC/C=C/c1cc(OC)cc(O)c1C(=O)OCc1ccc(F)cc1	41.7%	0%	10.9%	52%	6.55 µM	70.5%
≥ 30 µM			> 10 µM	≥ 30 µM	≥ 30 µM	C=CC(=O)NC/C=C/c1cc(OC)cc(O)c1C(=O)OC(C)C						
≥ 30 µM			> 10 µM	≥ 30 µM	≥ 30 µM	C=CC(=O)NC/C=C/c1cc(OC)cc(O)c1C(=O)O[C@@H](C)C(C)C						
≥ 30 µM			> 10 µM	≥ 30 µM	≥ 30 µM	C/C=C/C(=O)NC/C=C/c1cc(OC)cc(O)c1C(=O)OC(C)C						
> 30 µM	5.2%	12.5%	> 10 µM		15.9 µM	CCN(CC)C/C=C/C(=O)NC/C=C/c1cc(OC)cc(O)c1C(=O)OC(C)C						

SMILES	IC50 [1]	inhibition [4]	inhibition [6]	IC50 (MV4-11 [7])	IC50 [10]	IC50 [11]	inhibition of growth at 5 µM [2]	inhibition at 72 h, 5 µM [3]	inhibition of growth at 5 µM [5]	inhibition of growth at 5 µM (K562)	IC50 [8]	inhibition of growth at 5 µM (MV4-11 [9])
COc1cc(O)c2c(c1)CCC[C@H](O)[C@H](O)C(=O)/C=C\C[C@H](C)OC2=O	0.062 µM			0.01 µM	0.036 µM	0.011 µM	81.5%	74.6%	86%	69.7%	1.18 µM	99.7%
